Reference: ChEMBL document CHEMBL3751744, “Antibacterial activities of polythionates enhanced by carbonates” (2015)
Blank lines part the entries; values can stand above or below the molecule they belong to. Active and inactive are the calls of the source. The calls are words filed in the database; no cut-off is given here.

How the values were obtained:
Staphylococcus aureus [1] = test system: Staphylococcus aureus
Description: Bactericidal activity against Staphylococcus aureus assessed number of surviving colonies after 24 hrs

Pseudomonas aeruginosa [2] = test system: Pseudomonas aeruginosa
Description: (§1) Antibacterial activity against Pseudomonas aeruginosa assessed as growth inhibition after 24 hrs by turbidimetric method

Pseudomonas aeruginosa [3] = test system: Pseudomonas aeruginosa; remark: listed apart in the source
Staphylococcus aureus [4] = test system: Staphylococcus aureus; remark: listed apart in the source
Pseudomonas aeruginosa [5] = test: microbe, parasite or virus in culture; format: functional; settings: 24 h
Description: as §1

Staphylococcus aureus [6] = test: Antibacterial activity against Staphylococcus aureus assessed as growth inhibition after 24 hrs in presence of carbonate by turbidimetric method; format: functional
Pseudomonas aeruginosa [7] = test: Bactericidal activity against Pseudomonas aeruginosa assessed number of surviving colonies after 24 hrs in presence of carbonate; format: functional; settings: read-out: MBC99.9
Pseudomonas aeruginosa [8] = test: Antibacterial activity against Pseudomonas aeruginosa at 7.8 ug/ml by cup diffusion method; format: functional, organism-based
Staphylococcus aureus [9] = test: Antibacterial activity against Staphylococcus aureus assessed as growth inhibition after 24 hrs by turbidimetric method; format: functional
Staphylococcus aureus [10] = test: Antibacterial activity against Staphylococcus aureus at <125 ug/ml by cup diffusion method; format: functional, organism-based
Pseudomonas aeruginosa [11] = test: Antibacterial activity against Pseudomonas aeruginosa using 24 hrs aged compound solutions by cup diffusion method; format: functional, organism-based
Pseudomonas aeruginosa [12] = test: Bactericidal activity against Pseudomonas aeruginosa assessed number of surviving colonies after 24 hrs; format: functional; settings: read-out: MBC99.9
Staphylococcus aureus [13] = test: Antibacterial activity against Staphylococcus aureus assessed as growth inhibition after 24 hrs in presence of urea by turbidimetric method; format: functional
Staphylococcus aureus [14] = test: Bactericidal activity against Staphylococcus aureus […] assessed number of surviving colonies after 24 hrs in presence of carbonate; format: functional, organism-based
Pseudomonas aeruginosa [15] = test: Potency index, ratio of MIC for Pseudomonas aeruginosa to MIC for Pseudomonas aeruginosa assessed as growth inhibition in presence of urea; format: functional
Pseudomonas aeruginosa [16] = test: Bactericidal activity against Pseudomonas aeruginosa assessed number of surviving colonies after 24 hrs in presence of urea; format: functional; settings: read-out: MBC99.9
Pseudomonas aeruginosa [17] = test: Antibacterial activity against Pseudomonas aeruginosa assessed as growth inhibition after 24 hrs in presence of urea by turbidimetric method; format: functional
Staphylococcus aureus [18] = test: Bactericidal activity against Staphylococcus aureus […] assessed number of surviving colonies after 24 hrs in presence of urea; format: functional, organism-based
Staphylococcus aureus [19] = test: Potency index, ratio of MIC for Staphylococcus aureus to MIC for Staphylococcus aureus assessed as growth inhibition in presence of urea; format: functional
Staphylococcus aureus [20] = test: Antibacterial activity against Staphylococcus aureus at 250 ug/ml by cup diffusion method; format: functional, organism-based
Pseudomonas aeruginosa [21] = test: Antibacterial activity against Pseudomonas aeruginosa assessed as growth inhibition after 24 hrs in presence of carbonate by turbidimetric method; format: functional
Pseudomonas aeruginosa [22] = test: Antibacterial activity against Pseudomonas aeruginosa at 125 ug/ml by cup diffusion method; format: functional, organism-based

SMILES: O=S(=O)(O)O
MBC99.9 (Staphylococcus aureus [1]): inactive | MIC (Pseudomonas aeruginosa [2]): inactive | MBC99.9 (Pseudomonas aeruginosa [3]): inactive | MIC (Staphylococcus aureus [4]): inactive

SMILES: O=S(=O)([O-])SSSSS(=O)(=O)[O-].[K+].[K+]
MIC (Pseudomonas aeruginosa [5]): 0.98 µg/mL | MBC99.9 (Staphylococcus aureus [1]): inactive | MIC (Staphylococcus aureus [6]): 15.6 µg/mL | MBC (Pseudomonas aeruginosa [7]): 500 µg/mL | Activity (Pseudomonas aeruginosa [8]): Active | MIC (Staphylococcus aureus [9]): 7.81 µg/mL | Activity (Staphylococcus aureus [10]): inactive | Activity (Pseudomonas aeruginosa [11]): Active | MBC (Pseudomonas aeruginosa [12]): 1000 µg/mL | MIC (Staphylococcus aureus [13]): 62.5 µg/mL | MBC99.9 (Staphylococcus aureus [14]): inactive | Ratio (Pseudomonas aeruginosa [15]): 4 | MBC (Pseudomonas aeruginosa [16]): 500 µg/mL | MIC (Pseudomonas aeruginosa [17]): 1.95 µg/mL | MBC99.9 (Staphylococcus aureus [18]): inactive | Ratio (Staphylococcus aureus [19]): 4 | Activity (Staphylococcus aureus [20]): Active | MIC (Pseudomonas aeruginosa [21]): 1.95 µg/mL | Activity (Pseudomonas aeruginosa [22]): Active

SMILES: O=S(=O)([O-])SSSS(=O)(=O)[O-].[K+].[K+]
MIC (Pseudomonas aeruginosa [5]): 1.95 µg/mL | MBC99.9 (Staphylococcus aureus [1]): inactive | MIC (Staphylococcus aureus [6]): 125 µg/mL | MBC (Pseudomonas aeruginosa [7]): 1000 µg/mL | MIC (Staphylococcus aureus [9]): 62.5 µg/mL | Activity (Pseudomonas aeruginosa [11]): Active | MBC (Pseudomonas aeruginosa [12]): 500 µg/mL | MIC (Staphylococcus aureus [13]): inactive | MBC99.9 (Staphylococcus aureus [14]): inactive | MBC (Pseudomonas aeruginosa [16]): 1000 µg/mL | MIC (Pseudomonas aeruginosa [17]): 15.6 µg/mL | MBC99.9 (Staphylococcus aureus [18]): inactive | MIC (Pseudomonas aeruginosa [21]): 3.91 µg/mL

The next lines start with results.

MIC (Pseudomonas aeruginosa [2]): inactive | MIC (Staphylococcus aureus [4]): inactive
SMILES: O=S(=O)(O)SS(=O)(=O)O
MBC99.9 (Staphylococcus aureus [1]): inactive | MBC99.9 (Pseudomonas aeruginosa [3]): inactive

MIC (Pseudomonas aeruginosa [2]): inactive | MIC (Staphylococcus aureus [4]): inactive
SMILES: O=S(O)(O)=S
MBC99.9 (Staphylococcus aureus [1]): inactive | MBC99.9 (Pseudomonas aeruginosa [3]): inactive

MIC (Pseudomonas aeruginosa [2]): inactive | MIC (Staphylococcus aureus [4]): inactive
SMILES: NC(N)=O
MBC99.9 (Staphylococcus aureus [1]): inactive | MBC99.9 (Pseudomonas aeruginosa [3]): inactive

MIC (Pseudomonas aeruginosa [2]): inactive | MIC (Staphylococcus aureus [4]): inactive
SMILES: O=S(=O)(O)SSS(=O)(=O)O
MBC99.9 (Staphylococcus aureus [1]): inactive | MBC99.9 (Pseudomonas aeruginosa [3]): inactive
